Assay results taken from ChEMBL document CHEMBL1143307, “Small-molecule perturbation of competing interactions between c-Myc and Max” (Bioorg Med Chem Lett, 2009).

How the values were obtained:
[1] = Decrease in c-Myc-p21MAX heterodimer binding to E-box DNA at 50 uM by EMSA method
[2] = Binding affinity to fluorescently tagged c-Myc-p21MAX heterodimer assessed as competitive constant by using fluorescence polarization titration

fold change (FC) [1]: 2
Activity [2]: 12
Compound: CCc1ccc(/C=C2\SC(=S)NC2=O)cc1
